# Measurements: patent US12351556B2, “Pyridin-2(1H)one derivatives, their preparation and their use for the treatment of pain” (INSTITUT NATIONAL DE LA SANTE ET DE LA RECHERCHE MEDICALE …, priority 2019, dated 2025)
# “Also recorded” adds a separate entry of the source.
# Assays:
# JNK1 = JNK1 (Homo sapiens (Human), UniProt P45983); assay: ICKP protein kinase panel screening; type: biochemical; settings: duplicate assays, read-out: mean % residual activity
# Description: (§1) FIG. 3 illustrates the human kinome. Compound 69 was evaluated at the International Center For Kinase Profiling (ICKP, Dundee, Scotland) toward a panel of 50 protein kinases that provide a representative sampling of the human kinome. The results were expressed as the mean percentage of residual activity at 10 μM concentration (duplicate assays). Small disks: ≥65%, larger disk: 19%. The black square indicates the kinome region containing protein kinases evaluated in a second screening (FIG. 4, Table 4). The tree was generated using the Kinome Render software, and the illustration reproduced courtesy of Cell Signaling Technology, Inc. (www.cellsignal.com) Chartier et al PeerJ 2013, 1:e126.
# (§2) FIG. 4 illustrates the studies carried out for compounds 67 and 69. Compounds 67 and 69 (FIG. 4B) were evaluated at the International Center For Kinase Profiling (ICKP, Dundee, Scotland) toward a panel of 13 protein kinases. The results (FIG. 4A) were expressed as the mean percentage of residual activity at 1 μM concentration (duplicate assays). Small disks: ≥90%, larger disk: 59%, for both compounds. The tree was generated using the Kinome Render software, and the illustration reproduced courtesy of Cell Signaling Technology, Inc. (www.cellsignal.com) Chartier et al PeerJ 2013, 1:e126.
# (§3) Results are expressed as the mean percentage of residual activity at 10 μM (Table 3) or 1 μM (Table 4). They are illustrated on FIGS. 3 and 4.
# (§4) Studies were undertaken to identify the possible biological target(s) of compound 69. The activation in neurons of PK such as PKCγ, ERK or p38 MAPK can contribute to pain hypersensitivity. Therefore, it was decided to screen compound 69 toward a panel of 50 PKs that provide a representative sampling of the human kinome (FIG. 3, Table 3) (Biochem. J. 2007, 408, 297-315). In this panel, p38α MAPK was identified as the privileged target, with 19% of kinase residual activity at 10 μM compound concentration.
# (§5) The selectivity of compound 69 was evaluated at 1 μM toward another panel containing all four p38 MAPK isoforms, ERK1, ERK2 as well as other protein kinases close to p38α MAPK in the kinome phylogenetic tree (FIG. 4, Table 4). […] Its IC50 toward p38α MAPK was determined, showing a value in the micromolar range (IC50=3.0±0.1 μM).
# p38a MAPK = p38a MAPK (Homo sapiens (Human), UniProt Q16539); assay: ICKP protein kinase panel screening; type: biochemical; settings: duplicate assays, read-out: mean % residual activity
# Description: as §1, §2, §3, §4, §5
# [1] = tested on: panel of 13 protein kinases; assay: ICKP screening, whole panel of 13 protein kinases; type: biochemical, human; settings: 1 μM
# Description: as §2, §3, §5
# [2] = tested on: facial neuropathic MA (IoN-CCl); assay: Neuropathic MA: chronic constriction injury of the infraorbital nerve (IoN-CCl); type: in vivo; settings: rat, intracisternal 5 μL at 100 μM, 14 days after IoN-CCl
# Description: Time courses of changes in behavioral responses (allodynic score) evoked by normally innocuous mechanical stimuli (6-g von Frey filament) applied on the face of rats intracisternally treated with compound 69 (5 μL at 100 μM) or vehicle. In A, compound 69 or vehicle was preemptively applied 30 min before subcutaneous injection of CFA (at time 0). In B, compound 69 or vehicle was applied (at time 0) 14 days after IoN-CCl; that is, once a stable MA was established. […] Results are presented as mean±s.e.m.; n=4 (A) and n=5 (B) in each group. Allodynic score (from 0 to 4) according to Vos et al. J. Neurosci. 1994, 14, 2708-2723.
# Rat model of neuropathic MA: chronic constriction injury of the rat's infraorbital nerve (IoN-CCl).
# IoN-CCl was performed following a previously established surgical procedure Vos et al J. Neurosci. […]
# For investigating the effects of synthetized compounds upon mechanical allodynia, animals were briefly (<2 min) anesthetized using a mask with 2% isoflurane and received an intracisternal injection of 5 μL of compound (100 μM) or vehicle alone (saline+1% DMSO) using a 10 μL Hamilton syringe. […] The behavioral responses were observed and quantified by a second experimenter (see below). […]
# Compound 69 was also evaluated in a rat model of facial neuropathic MA produced by the constriction injury of the rat infraorbital nerve (IoN-CCl; J. Neurosci. 1994, 14, 2708-2723) (FIG. 2B). […]
# Chain of p38a MAPK (Q16539 whole entry): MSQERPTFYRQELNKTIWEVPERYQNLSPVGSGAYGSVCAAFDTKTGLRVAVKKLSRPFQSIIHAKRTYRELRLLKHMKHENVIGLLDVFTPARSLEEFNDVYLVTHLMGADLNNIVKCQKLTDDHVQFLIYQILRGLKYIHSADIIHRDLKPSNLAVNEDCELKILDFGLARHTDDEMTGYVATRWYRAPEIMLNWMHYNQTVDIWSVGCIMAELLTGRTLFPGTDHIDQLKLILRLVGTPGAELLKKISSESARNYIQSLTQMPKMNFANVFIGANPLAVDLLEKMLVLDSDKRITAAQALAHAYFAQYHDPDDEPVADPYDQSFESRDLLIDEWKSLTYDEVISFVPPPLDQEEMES
# Chain of JNK1 (P45983 whole entry): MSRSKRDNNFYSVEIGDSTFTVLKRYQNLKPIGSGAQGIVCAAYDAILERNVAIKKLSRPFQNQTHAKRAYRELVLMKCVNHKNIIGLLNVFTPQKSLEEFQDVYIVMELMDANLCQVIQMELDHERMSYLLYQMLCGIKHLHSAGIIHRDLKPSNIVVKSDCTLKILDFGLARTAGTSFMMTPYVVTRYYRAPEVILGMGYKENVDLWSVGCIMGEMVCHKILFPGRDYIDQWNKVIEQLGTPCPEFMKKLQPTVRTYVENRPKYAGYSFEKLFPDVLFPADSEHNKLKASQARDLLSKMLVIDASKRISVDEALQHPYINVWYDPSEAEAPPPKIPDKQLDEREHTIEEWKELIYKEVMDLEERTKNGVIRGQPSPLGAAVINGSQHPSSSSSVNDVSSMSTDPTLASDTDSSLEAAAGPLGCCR
compound,measurement,setting,value
"O=c1[nH]cc(Nc2ccccc2)cc1-c1ccccc1Br [Compound 69, 3-(2-Bromophenyl)-5-(phenylamino)pyridin-2(1H)-one]",remaining activity at 1 µM,JNK1; 1 μM,115%
same,remaining activity at 10 µM,JNK1; 10 μM,102%
same,remaining activity at 1 µM,p38a MAPK; 1 μM,59%
same,remaining activity at 10 µM,p38a MAPK; 10 μM,19%
same,"mean percentage of residual activity, other kinases of the panel (small disks)",[1]; all kinases except p38α MAPK,≥ 90%
same,selectivity for p38α MAPK over the other protein kinases incl. p38 isoforms,[1]; panel of 13 kinases,selective of p38α MAPK over the other protein kinases tested in this panel; also recorded: selective p38α MAPK inhibitor
same,reversal of neuropathic MA (allodynic score),[2],reversed MA; also recorded: quickly reversed
